Assay results from publication PMC8011931, “Identification, Structure–Activity Relationship, and Biological Characterization of 2,3,4,5-Tetrahydro-1H-pyrido[4,3-b]indoles as a Novel Class of CFTR Potentiators” (Journal of Medicinal Chemistry, 2020).
Read-outs that look alike come from different tables or passages of the source.

Columns and labels:
[1] = Lung tissue distribution after a single oral dose to rats; format: in vivo; conditions: Sprague-Dawley, rat, p.o., 10 mg/kg
Method: Taking into account both the encouraging results in rescuing the gating defect in mutant CFTR in both primary and secondary biological assays, and the promising in vivo PK profile, we quantified the amount of compound 39 in rat lung tissue, the main target organ for CF treatment. The lung tissue distribution of potentiator 39 was investigated following administration of a single oral dose of 10 mg/kg to Sprague–Dawley rats. Supported by the data obtained in the pharmacokinetic study after oral administration, two time points (2 and 4 h) were selected for collecting plasma and lung tissue samples. The mean concentration vs. time profiles of compound 39 in plasma and lung tissue are reported in Figure S2 (see the Supporting Information).
Three animals per dose and timing were treated. Compound 39 was dissolved in PEG400/Tween80/saline solution at 10/10/80% in volume and administered orally at a dose of 10 mg/kg. After 120 and 240 min, rats were sacrificed and lungs were immediately dissected, frozen on dry ice, and stored at −80 °C until analysis. Lung samples were homogenized in RIPA buffer (150 mM NaCl, 1.0% Triton X-100, 0.5% sodium deoxycholate, 0.1% sodium dodecyl sulfate, 50 mM Tris, and pH 8.0) and then split into two aliquots kept at −80 °C until analysis. An aliquot was used for compound lung-level evaluations. The second aliquot was kept for protein content evaluation using the bicinchoninic acid assay (Thermo Scientific, Rockford, IL, USA).
Plasma samples were centrifuged at 21,100g for 15 min at 4 °C, while homogenized lung samples were vigorously whirled. An aliquot of each sample was extracted (1:3) with cold CH3CN containing 200 nM of an appropriate internal standard being a close analogue of the parent compound. A calibration curve was prepared in both blank mouse plasma and naïve lung homogenate over a 1 nM to 10 μM range. Three quality controls were prepared by spiking the parent compound in both blank mouse plasma and naïve lung homogenate to 20, 200, and 2000 nM as final concentrations. The calibrators and quality controls were extracted (1:3) with the same extraction solution as the plasma and lung samples. The plasma and lung samples, the calibrators, and quality controls were centrifuged at 3270g for 15 min at 4 °C. The supernatants were further diluted (1:1) with H2O and analyzed by LC/MS–MS on a Waters ACQUITY UPLC/MS TQD system consisting of a TQD mass spectrometer equipped with an electrospray ionization interface and a photodiode array eλ detector. Electrospray ionization was applied in the positive mode. […] All samples (plasma and lung samples, calibrators, and quality controls) were quantified by MRM peak area response factor in order to determine the levels of the parent compound in plasma and lung. […]

F508del-CFTR = F508del-CFTR (Homo sapiens, UniProt P13569, DEL508-508); assay: TEER/PD measurements on primary HBE cells from an F508del/F508del CF patient, 24 h co-incubation with corrector; format: cell-based; design: primary HBE cells from an F508del/F508del CF patient; endogenous in cells; host or cells: primary human bronchial epithelial cells, F508del/F508del CF patient; conditions: 39 0.5 μM with ARN23765 10 nM
Chain of F508del-CFTR (P13569 with tags, fused parts or gaps DEL508-508): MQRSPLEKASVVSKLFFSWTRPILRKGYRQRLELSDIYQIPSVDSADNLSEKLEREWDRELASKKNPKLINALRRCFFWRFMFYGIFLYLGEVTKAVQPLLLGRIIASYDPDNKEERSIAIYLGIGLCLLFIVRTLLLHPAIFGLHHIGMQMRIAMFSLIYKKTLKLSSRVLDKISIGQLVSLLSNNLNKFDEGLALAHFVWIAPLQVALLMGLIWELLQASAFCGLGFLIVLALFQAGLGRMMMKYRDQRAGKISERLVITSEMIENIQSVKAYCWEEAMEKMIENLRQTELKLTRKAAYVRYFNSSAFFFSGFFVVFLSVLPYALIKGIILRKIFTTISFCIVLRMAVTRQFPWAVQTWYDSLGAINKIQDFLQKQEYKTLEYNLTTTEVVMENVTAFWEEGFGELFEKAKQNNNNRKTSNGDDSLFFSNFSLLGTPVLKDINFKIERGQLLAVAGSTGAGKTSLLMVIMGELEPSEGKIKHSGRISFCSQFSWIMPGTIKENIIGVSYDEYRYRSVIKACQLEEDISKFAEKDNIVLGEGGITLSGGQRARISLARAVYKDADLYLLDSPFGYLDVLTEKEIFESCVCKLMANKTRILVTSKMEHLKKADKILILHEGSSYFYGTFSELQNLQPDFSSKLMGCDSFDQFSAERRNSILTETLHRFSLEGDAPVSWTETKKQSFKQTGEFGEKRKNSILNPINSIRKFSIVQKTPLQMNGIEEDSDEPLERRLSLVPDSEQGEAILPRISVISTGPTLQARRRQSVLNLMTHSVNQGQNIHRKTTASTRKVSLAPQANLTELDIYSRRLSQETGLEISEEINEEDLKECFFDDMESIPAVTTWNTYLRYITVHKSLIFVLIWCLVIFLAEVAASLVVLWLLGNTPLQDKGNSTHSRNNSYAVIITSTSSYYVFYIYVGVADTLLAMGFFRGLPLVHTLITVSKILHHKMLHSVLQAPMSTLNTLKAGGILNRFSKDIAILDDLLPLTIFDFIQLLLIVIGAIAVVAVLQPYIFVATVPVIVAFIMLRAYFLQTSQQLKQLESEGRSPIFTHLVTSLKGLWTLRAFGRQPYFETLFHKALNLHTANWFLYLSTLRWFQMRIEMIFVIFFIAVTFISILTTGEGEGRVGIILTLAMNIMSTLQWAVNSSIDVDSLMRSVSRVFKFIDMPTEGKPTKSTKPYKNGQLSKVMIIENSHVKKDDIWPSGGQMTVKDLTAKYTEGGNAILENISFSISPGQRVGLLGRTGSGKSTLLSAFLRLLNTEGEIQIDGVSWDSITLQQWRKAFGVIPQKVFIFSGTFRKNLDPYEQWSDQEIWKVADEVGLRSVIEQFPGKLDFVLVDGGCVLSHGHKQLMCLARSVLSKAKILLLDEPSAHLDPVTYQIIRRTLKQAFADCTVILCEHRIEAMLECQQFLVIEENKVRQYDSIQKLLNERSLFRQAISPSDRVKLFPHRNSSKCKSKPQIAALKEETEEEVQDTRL
Method: A similar combination study was conducted on primary HBE cells from an F508del/F508del CF patient. The effect of the compound was assessed with the transepithelial electrical resistance and potential difference (TEER/PD) technique.[41] Epithelia were treated for 24 h with a vehicle, a corrector ARN23765 alone (10 nM), or ARN23765 (10 nM) plus the potentiator 39 (0.5 μM). TEER and PD values were taken at resting, after the addition of apical amiloride, after maximal stimulation of F508del-CFTR activity (with forskolin plus genistein), and after blocking with PPQ-102. For each epithelium, we measured the difference in the short-circuit current, Ieq (calculated from the TEER and PD values), before and after blocking with PPQ-102 (ΔIeq). The results obtained on primary epithelia confirmed that the rescue of CFTR activity by the corrector ARN23765 was not affected by coincubation with the novel potentiator 39 (Figure 7B).
Primary bronchial epithelial cells were cultured as previously described.[58] In brief, epithelial cells were cultured in a serum-free medium (LHC9 mixed with RPMI 1640, 1:1) supplemented with hormones and supplements to support cell number amplification. […] Differentiation of cells to form a tight epithelium was monitored by measuring transepithelial electrical resistance and potential difference with an epithelial voltohmmeter (EVOM1, World Precision Instruments). […]

[2] = lung, read-out: concentration in the lungs

## Cc1ccc(F)c2[nH]c3c(c12)CN(C(=O)c1cc(C(F)(F)F)[nH]n1)[C@H](C)C3 [Compound 39, (R)-(6-Fluoro-3,9-dimethyl-1,3,4,5-tetrahydro-2H-pyrido[4,3-b]indol-2-yl)-(5-(trifluoromethyl)-1H-pyrazol-3-yl)methanone]
[1]; [2]
  concentration at 2 h: 4500 ng/g
  concentration at 4 h: 2200 ng/g
[1]; plasma, read-out: plasma level
  concentration at 2 h: 1030 ng/mL
  concentration at 4 h: 675 ng/mL
F508del-CFTR
  effect on rescue of CFTR activity by the corrector ARN23765 (ΔIeq): not affected
